Experiments:
tubulin = tested on: T1, tubulin; assay: Tubulin polymerization assay (light scattering at 550 nm); type: biochemical, mammalian; conditions: 25 μM or 100 μM
T1 construct: other: 2 μM tubulin, 45 min at 37° C., double reciprocal plot; rate and extent of tubulin polymerization; other: 25 μM or 100 μM
Experimental: Mammalian brain tubulin (1.0 mg/ml) was mixed with different concentrations of 9-nitro-nos (25 or 100 μM) at 0° C. in an assembly buffer (100 mM PIPES at pH 6.8, 3 mM MgSO4, 1 mM EGTA, 1 mM GTP, and 1M sodium glutamate). Polymerization was initiated by raising the temperature to 37° C. in a water bath. The rate and extent of the polymerization reaction were monitored by light scattering at 550 nm, using a 0.3-cm path length cuvette in a JASCO FP-6500 spectrofluorometer (JASCO, Tokyo, Japan) for 30 minutes.

CEM cells = assay: In vitro cell proliferation MTS assay; type: cell-based; conditions: Homo sapiens, CCRF-CEM, 72 hours
Experimental: (§1) Suspension cells (CEM, CEMNLB100 and CEM/VM-1-5) were cultured in RPMI-1640 media containing 10% FBS and then seeded into 96-well plates at a density of 5×10^3 cells per well and were treated with increasing gradient concentrations of 9-nitro-nos for 72 hours. Measurement of cell proliferation was performed colorimetrically by 3-(4,5-dimethylthiazol-2-yl)-5-(3-carboxymethoxyphenyl)-2-(4-sulphophenyl)-2H-tetrazolium, inner salt (MTS) assay, using the CellTiter96 AQueous One Solution Reagent (Promega, Madison, Wis.). Cells were exposed to MTS for 3 hours and absorbance was measured using a microplate reader (Molecular Devices, Sunnyvale, Calif.) at an optical density (OD) of 490 nm. The percentage of cell survival as a function of drug concentration for both the assays was then plotted to determine the IC50 value, which stands for the drug concentration needed to prevent cell proliferation by 50%.
as §1, with “(CEM)” for “(CEM, CEMNLB100 and CEM/VM-1-5)”, “were” for “were cultured in RPMI-1640 media containing 10% FBS and then”, “increasing” for “increasing gradient”, “all halogenated analogs” for “9-nitro-nos”

CEM/VM-1-5 cells = assay: Cell cycle analysis (propidium iodide, flow cytometry); type: cell-based, human; conditions: CEM/VM-1-5, 25 μM
Experimental: The flow cytometric evaluation of the cell cycle status was performed as described previously (Zhou et al., 2003). Briefly, 2×10^6 cells were centrifuged, washed twice with ice-cold PBS, and fixed in 70% ethanol. Tubes containing the cell pellets were stored at 4° C. for at least 24 hours. Cells were then centrifuged at 1000×g for 10 min and the supernatant was discarded. The pellets were washed twice with 5 ml of PBS and then stained with 0.5 ml of propidium iodide (0.1% in 0.6% Triton-X in PBS) and 0.5 ml of RNase A (2 mg/ml) for 45 minutes in dark. Samples were then analyzed on a FACSCalibur flow cytometer (Beckman Coulter Inc., Fullerton, Calif.).

COc1ccc2c(c1OC)C(=O)O[C@@H]2[C@H]1c2c(c([N+](=O)[O-])c3c(c2OC)OCO3)CCN1C [9-nitro-nos, (S)-6,7-dimethoxy-3-((R)-4-methoxy-6-methyl-9-nitro-5,6,7,8-tetrahydro-[1,3]dioxolo[4,5-g]isoquinolin-5-yl)isobenzofuran-1(3H)-one]
rate and extent of tubulin polymerization (tubulin): did not inhibit the rate or extent of tubulin polymerization | IC50 (CEM cells): 10 µM | G0/G1 (CEM/VM-1-5 cells; 0 h): 36.0% | G2/M (CEM/VM-1-5 cells; 0 h): 30.7% | S (CEM/VM-1-5 cells; 0 h): 19.4% | Sub-G1 (CEM/VM-1-5 cells; 0 h): 3.4% | G0/G1 (CEM/VM-1-5 cells; 24 h): 25.4% | G2/M (CEM/VM-1-5 cells; 24 h): 41.0% | S (CEM/VM-1-5 cells; 24 h): 13.0% | Sub-G1 (CEM/VM-1-5 cells; 24 h): 18.8% | G0/G1 (CEM/VM-1-5 cells; 48 h): 13.7% | G2/M (CEM/VM-1-5 cells; 48 h): 15.0% | S (CEM/VM-1-5 cells; 48 h): 11.0% | Sub-G1 (CEM/VM-1-5 cells; 48 h): 58.0% | G0/G1 (CEM/VM-1-5 cells; 72 h): 10.5% | G2/M (CEM/VM-1-5 cells; 72 h): 12.2% | S (CEM/VM-1-5 cells; 72 h): 8.7% | Sub-G1 (CEM/VM-1-5 cells; 72 h): 63.0%

— patent US8889705B2, “Noscapine analogs and their use in treating cancers” (Emory University, priority 2007, dated 2014)
